# According to US20240058328A1, “MASITINIB FOR THE TREATMENT OF ALZHEIMER'S DISEASE” (AB SCIENCE, priority 2020, published 2024):
# Test system: patients with Alzheimer's disease
# Test: Phase 3 study AB09004: change from baseline in ADCS-ADL score
# Assay type: in vivo, human
# Set-up: key to δLSM (ADCS-ADL): LSM difference in ADCS-ADL change; positive = improvement
# Details: for δLSM (ADCS-ADL) / ΔLSM (ADCS-ADL): 4.5 mg/kg/day; for δLSM (ADCS-ADL): week 24 from baseline; for ΔLSM (ADCS-ADL): vs placebo, week 24; for improved benefit relative to complementary subpopulation: ΔLSM (ADCS-ADL)
# Experimental: An international, multicenter, randomized, double-blind, placebo-controlled phase 3 study was conducted with the objective to evaluate oral masitinib at a dose of 4.5 mg/kg/day as a treatment for Alzheimer's disease.
# Eligible patients, aged at least 50 years, were diagnosed with dementia of Alzheimer's type according to Diagnostic and Statistical Manual of Mental Disorders (DSM)-IV criteria, and probable Alzheimer's disease according to NINCDS-ADRDA (National Institute of Neurological and Communicative Diseases and Stroke/Alzheimer's Disease and Related Disorders Association) criteria. […] Patients with any other cause of dementia not due to Alzheimer's disease were ineligible for the study.
# Eligible patients were treated during 24 weeks with masitinib at a dose of 4.5 mg/kg/day (mg per kilo body weight per day) or with placebo. Treatment was administered as add-on therapy in patients who had been treated for a minimum of 6 months with a stable dose of cholinesterase inhibitors (donepezil, rivastigmine or galantamine) and/or memantine, with no changes foreseen in therapy throughout the study.
# Primary analysis was based on the co-primary endpoints of: • Change from baseline in Alzheimer's Disease Cooperative Study Activities of Daily Living (ADCS-ADL) score. The ADCS-ADL assesses the competence of patients with Alzheimer's disease in basic and instrumental activities of daily living (ADLs). • Change from baseline in Alzheimer's Disease Assessment Scale-Cognitive Subscale (ADAS-Cog). The ADAS-Cog assesses cognition and memory.
# Treatment effect (masitinib versus placebo) was assessed based on absolute change from baseline to week 24 by using an analysis of covariance model (ANCOVA linear model) with the following factors: treatment, baseline value, and stratification criteria of baseline MMSE score, age, ADCS-ADL total score, and ADAS-Cog total score.
# For ADCS-ADL, the global score (i.e., the sum of 23 items rated by the caregiver) was used with a range from 0 to 78, wherein 78 implies full functioning with no impairment. Thus, a higher score signifies greater functional ability, while a lower score signifies greater (worse) impairment. Results are expressed as a least-squares means difference (δLSM) of absolute change in ADCS-ADL score from baseline; that is to say, the change over time in the ADCS-ADL score, or in other words the difference between the ADCS-ADL score at baseline (before treatment initiation) and the ADCS-ADL score after treatment with masitinib or with placebo. An increase in ADCS-ADL score with respect to baseline (i.e., a positive δLSM) indicates an improvement in the patient and therefore disease stability, whereas a decrease in ADCS-ADL score with respect to baseline (i.e., negative δLSM) indicates a worsening in the patient and therefore disease progression. Treatment-effect is reported as the difference between treatment-arms (ΔLSM) (calculated as δLSM[masitinib] minus δLSM[placebo]), with a positive value indicating a beneficial effect of treatment with masitinib as compared to treatment with placebo. In a scenario where both treatment-arms show worsening in activities of daily living (i.e., a negative δLSM), then a positive ΔLSM indicates a beneficial treatment effect for masitinib, i.e., the rate of decline in masitinib treated patients is slower than that of patients from the placebo-arm.
# The comparison was carried out using the following information: • δLSM: least-squares means difference of absolute change in endpoint score at week 24 from baseline, either according to ADAS-Cog assessment or to ADCS-ADL assessment. • ΔLSM: Difference between treatment-arms (treatment-effect) calculated as δLSM[masitinib] minus δLSM[placebo]. • Δsub/Δoverall: Ratio of subpopulation's placebo-controlled treatment-effect (ΔLSM at W24 for masitinib 4.5 mg/kg/d parallel arm) versus overall study population's placebo-controlled treatment-effect (ΔLSM at W24 for masitinib 4.5 mg/kg/d parallel arm). […]
compound,measurement,setting,value
"Cc1ccc(NC(=O)c2ccc(CN3CCN(C)CC3)cc2)cc1Nc1nc(-c2cccnc2)cs1 [masitinib, 4-(4-methylpiperazin-1-ylmethyl)-N-[4-methyl-3-(4-pyridin-3ylthiazol-2-ylamino)phenyl]benzamide]",δLSM (ADCS-ADL),MMSE [12-20],−0.4369
same,ΔLSM (ADCS-ADL),MMSE [25-21],+2.7435 points
same,ΔLSM (ADCS-ADL),"MMSE [25-21], listed as M4.5, 4.5 mg/kg/day",2.7435 points
same,δLSM (ADCS-ADL),MMSE [25-21],3.5738
same,ΔLSM (ADCS-ADL),MMSE ≥13,2.0496 points
same,δLSM (ADCS-ADL),MMSE ≥13,1.1204
same,ΔLSM (ADCS-ADL),MMSE ≥14,+2.4046 points
same,ΔLSM (ADCS-ADL),"MMSE ≥14, listed as M4.5, 4.5 mg/kg/day",2.4046 points
same,δLSM (ADCS-ADL),MMSE ≥14,1.3505
same,ΔLSM (ADCS-ADL),MMSE ≥15,2.2738 points
same,δLSM (ADCS-ADL),MMSE ≥15,1.3520
same,ΔLSM (ADCS-ADL),MMSE ≥16,2.5566 points
same,δLSM (ADCS-ADL),MMSE ≥16,1.6088
same,ΔLSM (ADCS-ADL),MMSE ≥17,2.2870 points
same,δLSM (ADCS-ADL),MMSE ≥17,1.0330
same,ΔLSM (ADCS-ADL),Overall Population,1.8190 points
same,δLSM (ADCS-ADL),Overall Population,1.0107
same,Δsub/Δoverall,"ratio of ΔLSM (ADCS-ADL) at W24, Baseline ADCS-ADL >39 vs overall study population",1.14
same,Δsub/Δoverall,"ratio of ΔLSM (ADCS-ADL) at W24, Baseline ADCS-ADL >47 vs overall study population",1.19
same,Δsub/Δoverall,"ratio of ΔLSM (ADCS-ADL) at W24, Baseline ADCS-ADL >55 vs overall study population",1.75
same,Δsub/Δoverall,"ratio of ΔLSM (ADCS-ADL) at W24, Baseline ADCS-ADL ≥32 vs overall study population",1.09
same,Δsub/Δoverall,"ratio of ΔLSM (ADCS-ADL) at W24, Baseline ADCS-ADL ≥35 vs overall study population",1.11
same,Δsub/Δoverall,"ratio of ΔLSM (ADCS-ADL) at W24, Baseline ADCS-ADL ≥38 vs overall study population",1.28
same,Δsub/Δoverall,"ratio of ΔLSM (ADCS-ADL) at W24, Baseline ADCS-ADL ≥41 vs overall study population",1.11
same,Δsub/Δoverall,"ratio of ΔLSM (ADCS-ADL) at W24, Baseline ADCS-ADL ≥50 vs overall study population",1.78
same,Δsub/Δoverall,"ratio of ΔLSM (ADCS-ADL) at W24, MMSE [20-12] vs overall study population",0.76
same,Δsub/Δoverall,"ratio of ΔLSM (ADCS-ADL) at W24, MMSE [25-21] vs overall study population",1.51
same,Δsub/Δoverall,"ratio of ΔLSM (ADCS-ADL) at W24, MMSE ≥13 vs overall study population",1.13
same,Δsub/Δoverall,"ratio of ΔLSM (ADCS-ADL) at W24, MMSE ≥14 vs overall study population",1.32
same,Δsub/Δoverall,"ratio of ΔLSM (ADCS-ADL) at W24, MMSE ≥15 vs overall study population",1.25
same,Δsub/Δoverall,"ratio of ΔLSM (ADCS-ADL) at W24, MMSE ≥16 vs overall study population",1.41
same,Δsub/Δoverall,"ratio of ΔLSM (ADCS-ADL) at W24, MMSE ≥17 vs overall study population",1.26
same,Δsub/Δoverall (percentage improvement),"ΔLSM (ADCS-ADL) at W24, Baseline ADCS-ADL >39 vs overall study population",(14%)
same,Δsub/Δoverall (percentage improvement),"ΔLSM (ADCS-ADL) at W24, Baseline ADCS-ADL >47 vs overall study population",(19%)
same,Δsub/Δoverall (percentage improvement),"ΔLSM (ADCS-ADL) at W24, Baseline ADCS-ADL >55 vs overall study population",75%
same,Δsub/Δoverall (percentage improvement),"ΔLSM (ADCS-ADL) at W24, Baseline ADCS-ADL >55 vs overall study population, listed as M4.5",(75%)
same,Δsub/Δoverall (percentage improvement),"ΔLSM (ADCS-ADL) at W24, Baseline ADCS-ADL ≥32 vs overall study population",(9%)
same,Δsub/Δoverall (percentage improvement),"ΔLSM (ADCS-ADL) at W24, Baseline ADCS-ADL ≥35 vs overall study population",(11%)
same,Δsub/Δoverall (percentage improvement),"ΔLSM (ADCS-ADL) at W24, Baseline ADCS-ADL ≥38 vs overall study population",(28%)
same,Δsub/Δoverall (percentage improvement),"ΔLSM (ADCS-ADL) at W24, Baseline ADCS-ADL ≥41 vs overall study population",(11%)
same,Δsub/Δoverall (percentage improvement),"ΔLSM (ADCS-ADL) at W24, Baseline ADCS-ADL ≥50 vs overall study population",78%
same,Δsub/Δoverall (percentage improvement),"ΔLSM (ADCS-ADL) at W24, Baseline ADCS-ADL ≥50 vs overall study population, listed as M4.5",(78%)
same,Δsub/Δoverall (percentage improvement),"ΔLSM (ADCS-ADL) at W24, MMSE [20-12] vs overall study population",(−24%)
same,Δsub/Δoverall (percentage improvement),"ΔLSM (ADCS-ADL) at W24, MMSE [25-21] vs overall study population",51%
same,Δsub/Δoverall (percentage improvement),"ΔLSM (ADCS-ADL) at W24, MMSE [25-21] vs overall study population, listed as M4.5",(51%)
same,Δsub/Δoverall (percentage improvement),"ΔLSM (ADCS-ADL) at W24, MMSE ≥13 vs overall study population",(13%)
same,Δsub/Δoverall (percentage improvement),"ΔLSM (ADCS-ADL) at W24, MMSE ≥14 vs overall study population",32%
same,Δsub/Δoverall (percentage improvement),"ΔLSM (ADCS-ADL) at W24, MMSE ≥14 vs overall study population, listed as M4.5",(32%)
same,Δsub/Δoverall (percentage improvement),"ΔLSM (ADCS-ADL) at W24, MMSE ≥15 vs overall study population",(25%)
same,Δsub/Δoverall (percentage improvement),"ΔLSM (ADCS-ADL) at W24, MMSE ≥16 vs overall study population",(41%)
same,Δsub/Δoverall (percentage improvement),"ΔLSM (ADCS-ADL) at W24, MMSE ≥17 vs overall study population",(26%)
same,improved benefit relative to complementary subpopulation,baseline ADAS-Cog ≤25 relative to >25,84%
same,improved benefit relative to complementary subpopulation,baseline ADCS-ADL >39 relative to ≤39,191%
same,improved benefit relative to complementary subpopulation,baseline ADCS-ADL >55 relative to ≤55,about 600%
same,improved benefit relative to complementary subpopulation,"baseline MMSE 25 to 21 relative to MMSE 20 to 12, printed as 'between 99% to 66%'",99%
